In patent US6620828B2, “Thiazole compounds and pharmaceutical compositions for inhibiting protein kinases and methods for their use” (Agouron Pharmaceuticals, Inc., priority 1999, dated 2003):
Read-outs that look alike come from different tables or passages of the source.

System: human umbilical vein endothelial cells (HUVEC)
Assay: HUVEC proliferation assay
Type: cell-based
Conditions: for inhibition at 0.15 µM / % inhibition @ 150 nM: Table I screening results, 150 nM; for inhibition at 0.05 µM: 50 nM; for inhibition at 0.001 µM: 1 nM; for inhibition at 0.01 µM: 10 nM
Method: HUVEC Proliferation Assay
This assay determines the ability of a test compound to inhibit the growth factor-stimulated proliferation of human umbilical vein endothelial cells (“HUVEC”). HUVEC cells (passage 3-4, Clonetics, Corp.) were thawed into EGM2 culture medium (Clonetics Corp) in T75 flasks. Fresh EGM2 medium was added to the flasks 24 hours later. Four or five days later, cells were exposed to another culture medium (F12K medium supplemented with 10% fetal bovine serum (FBS), 60 μg/ml endothelial cell growth supplement (ECGS), and 0.1 mg/ml heparin). Exponentially-growing HUVEC cells were used in experiments thereafter. Ten to twelve thousand HUVEC cells were plated in 96-well dishes in 100 μl of rich, culture medium (described above). The cells were allowed to attach for 24 hours in this medium. The medium was then removed by aspiration and 105 μl of starvation media (F12K+1% FBS) was added to each well. After 24 hours, 15 μl of test agent dissolved in 1% DMSO in starvation medium or this vehicle alone was added into each treatment well; the final DMSO concentration was 0.1%. One hour later, 30 μl of VEGF (30 ng/ml) in starvation media was added to all wells except those containing untreated controls; the final VEGF concentration was 6 ng/ml. Cellular proliferation was quantified 72 hours later by MTT dye reduction, at which time cells were exposed for 4 hours MTT (Promega Corp.). Dye reduction was stopped by addition of a stop solution (Promega Corp.) and absorbance at 595 λ was determined on a 96-well spectrophotometer plate reader.
IC50 values were calculated by curve-fitting the response of A^595 to various concentrations of the test agent; typically, seven concentrations separated by 0.5 log were employed, with triplicate wells at each concentration. For screening compound library plates, one or two concentrations (one well per concentration) were employed, and the % inhibition was calculated by the following formula:
% inhibition=(control−test) divided by (control−starvation) […]
control=A^595 when VEGF is present without test agent test=A^595 when VEGF is present with test agent starvation=A^595 when VEGF and test agent are both absent.

[1] = Homo sapiens, HUVEC, crude combinatorial amide library
[2] = crude combinatorial amide library
[3] = Homo sapiens, HUVEC, Inhibition of HUVEC Proliferation, crude combinatorial urea library, read-out: % inhibition @ 50 nM
[4] = Homo sapiens, HUVEC, table following Table II (untitled), crude combinatorial library
[5] = Homo sapiens, HUVEC, table following Table II (untitled), crude combinatorial library, read-out: % inhibition @ 10 nM
[6] = Homo sapiens, HUVEC, Inhibition of HUVEC Proliferation, crude combinatorial urea library, read-out: Inhibition @ 50 nM
[7] = Homo sapiens, HUVEC, crude combinatorial urea library, read-out: Inhibition of HUVEC Proliferation % inhibition @ 10 nM
[8] = Homo sapiens, HUVEC, crude combinatorial urea library, read-out: Inhibition of HUVEC Proliferation % inhibition @ 50 nM
[9] = Homo sapiens, HUVEC, Table II screening results, crude combinatorial amide library
[10] = Homo sapiens, HUVEC, Table II screening results, crude combinatorial amide library, read-out: % inhibition @ 10 nM

COc1cc(Nc2nc(N)c(-c3nc(-c4cccc(NC(=O)Cc5ccc(Cl)cc5Cl)c4)cs3)s2)cc(OC)c1OC
inhibition at 0.15 µM [1]: -20%

COc1cc(Nc2nc(N)c(-c3nc(-c4cccc(NC(=O)/C=C/c5ccoc5)c4)cs3)s2)cc(OC)c1OC
% inhibition @ 150 nM [2]: 0%

COc1ccc(C(=O)Nc2cccc(-c3csc(-c4sc(Nc5cc(OC)c(OC)c(OC)c5)nc4N)n3)c2)cc1F
inhibition at 0.15 µM [1]: 51%

COc1cc(Nc2nc(N)c(-c3nc(-c4cccc(NC(=O)/C(=C/c5ccccc5)c5ccccc5)c4)cs3)s2)cc(OC)c1OC
inhibition at 0.15 µM [1]: 3%

COc1cccc(C(=O)Nc2cc(-c3csc(-c4sc(NC(=O)NCC5(O)CCCCC5)nc4N)n3)c(F)cc2F)c1
inhibition at 0.05 µM [3]: 72%

COc1cc(Nc2nc(N)c(-c3nc(-c4cc(NC(=O)C5CC5C)ccc4C)no3)s2)cc(OC)c1OC (stereo not drawn)
inhibition at 0.001 µM [4]: 24%
inhibition at 0.01 µM [5]: 6%

COc1cccc(C(=O)Nc2cc(-c3csc(-c4sc(NC(=O)NCc5ccncc5)nc4N)n3)c(F)cc2F)c1
inhibition at 0.05 µM [3]: 95%

CCOC(=O)/C=C/C(=O)Nc1cccc(-c2csc(-c3sc(Nc4cc(OC)c(OC)c(OC)c4)nc3N)n2)c1
inhibition at 0.15 µM [1]: 27%

COc1cc(Nc2nc(N)c(-c3nc(-c4cc(NC(=O)CC5=CCCCC5)ccc4C)no3)s2)cc(OC)c1OC
inhibition at 0.001 µM [4]: -12%
inhibition at 0.01 µM [5]: 43%

CCN(CC)CCCNC(=O)Nc1nc(N)c(-c2nc(-c3cc(NC(=O)c4cccc(OC)c4)c(F)cc3F)no2)s1
inhibition at 0.05 µM [6]: 85%

COc1cc(Nc2nc(N)c(-c3nc(-c4cc(NC(=O)C5C(C=C(C)C)C5(C)C)ccc4C)no3)s2)cc(OC)c1OC (stereo not drawn)
inhibition at 0.001 µM [4]: 8%
inhibition at 0.01 µM [5]: -11%

CCN(CC)CCCC(C)NC(=O)Nc1nc(N)c(-c2nc(-c3cc(NC(=O)c4cccc(OC)c4)c(F)cc3F)cs2)s1 (stereo not drawn)
inhibition at 0.05 µM [3]: 84%

COc1cc(Nc2nc(N)c(-c3nc(-c4cccc(NC(=O)c5ccc6c(c5)OCO6)c4)cs3)s2)cc(OC)c1OC
inhibition at 0.15 µM [1]: 42%

COc1cccc(C(=O)Nc2cc(-c3csc(-c4sc(NC(=O)NCc5ccccc5)nc4N)n3)c(F)cc2F)c1 [O(13), N-{5-[4′-Amino-2′-(3-benzyl-ureido)-[2,5′]bithiazolyl-4-yl]-2,4-difluoro-phenyl}-3-methoxy-benzamide]
IC50 (Homo sapiens, HUVEC, Table 3): 140 nM

COc1cccc(C(=O)Nc2cccc(-c3csc(-c4sc(NC(=O)NCC5(O)CCCCC5)nc4N)n3)c2)c1
inhibition at 0.01 µM [7]: 4%
inhibition at 0.05 µM [8]: 2%

CC/C=C(\C)C(=O)Nc1cccc(-c2csc(-c3sc(NC(=O)NC)nc3N)n2)c1
inhibition at 0.001 µM [9]: -12%
inhibition at 0.01 µM [10]: 67%

COc1cc(Nc2nc(N)c(-c3nc(-c4cc(NC(=O)C(=O)C5=CCCCC5)ccc4C)no3)s2)cc(OC)c1OC
inhibition at 0.001 µM [4]: -36%
inhibition at 0.01 µM [5]: 11%

COc1cccc(C(=O)Nc2cccc(-c3csc(-c4sc(NC(=O)NCCCN5CCCC5=O)nc4N)n3)c2)c1
inhibition at 0.01 µM [7]: 28%
inhibition at 0.05 µM [8]: 123%

COc1cccc(C(=O)Nc2cccc(-c3csc(-c4sc(NC(=O)NCCN(C)C)nc4N)n3)c2)c1
inhibition at 0.01 µM [7]: -11%
inhibition at 0.05 µM [8]: 46%

COc1cccc(C(=O)Nc2cc(-c3csc(-c4sc(NC(=O)NCCc5ccncc5)nc4N)n3)c(F)cc2F)c1 [drawing 753]
inhibition at 0.05 µM [3]: 98%

COc1cccc(C(=O)Nc2cc(-c3noc(-c4sc(NC(=O)NCCCn5ccnc5)nc4N)n3)c(F)cc2F)c1
inhibition at 0.05 µM [6]: 87%

CNC(=O)Nc1nc(N)c(-c2nc(-c3cccc(NC(=O)c4ccc(=O)oc4)c3)cs2)s1
inhibition at 0.001 µM [9]: -4%
inhibition at 0.01 µM [10]: 30%

COc1cccc(C(=O)Nc2cccc(-c3csc(-c4sc(NC(=O)NCc5ccccn5)nc4N)n3)c2)c1
inhibition at 0.01 µM [7]: -5%
inhibition at 0.05 µM [8]: 103%

COc1cc(Nc2nc(N)c(-c3nc(-c4cccc(NC(=O)C(C)c5ccc(CC(C)C)cc5)c4)cs3)s2)cc(OC)c1OC (stereo not drawn)
% inhibition @ 150 nM [2]: 0%

CNC(=O)Nc1nc(N)c(-c2nc(-c3cccc(NC(=O)c4ccccc4)c3)cs2)s1
inhibition at 0.001 µM [9]: -8%
inhibition at 0.01 µM [10]: -40%

COc1cccc(C(=O)Nc2cccc(-c3csc(-c4sc(NC(=O)NCCCN(C)c5ccccc5)nc4N)n3)c2)c1
inhibition at 0.01 µM [7]: 17%
inhibition at 0.05 µM [8]: 98%

CCC(C(=O)Nc1cccc(-c2csc(-c3sc(Nc4cc(OC)c(OC)c(OC)c4)nc3N)n2)c1)c1ccccc1 (stereo not drawn)
inhibition at 0.15 µM [1]: 6%

COc1cc(Nc2nc(N)c(-c3nc(-c4cc(NC(=O)c5cc(F)ccc5C)ccc4C)no3)s2)cc(OC)c1OC
inhibition at 0.001 µM [4]: 29%
inhibition at 0.01 µM [5]: 64%

COc1cc(Nc2nc(N)c(-c3nc(-c4cccc(NC(=O)Cc5cccc(C)c5)c4)cs3)s2)cc(OC)c1OC
inhibition at 0.15 µM [1]: 75%

COc1cc(Nc2nc(N)c(-c3nc(-c4cccc(NC(=O)c5ccc(C)s5)c4)cs3)s2)cc(OC)c1OC [drawing 916]
inhibition at 0.15 µM [1]: 32%

CNC(=O)Nc1nc(N)c(-c2nc(-c3cccc(NC(=O)c4cc(C)[nH]c4C)c3)cs2)s1
inhibition at 0.001 µM [9]: 25%
inhibition at 0.01 µM [10]: -13%

COc1cc(Nc2nc(N)c(-c3nc(-c4cccc(NC(=O)c5cc6ccccc6[nH]5)c4)cs3)s2)cc(OC)c1OC
inhibition at 0.15 µM [1]: 4%

COc1cccc(C(=O)Nc2cc(-c3csc(-c4sc(NC(=O)NCCc5ccccn5)nc4N)n3)c(F)cc2F)c1
inhibition at 0.05 µM [3]: 105%

COc1cc(Nc2nc(N)c(-c3nc(-c4cccc(NC(=O)Cc5ccccc5F)c4)cs3)s2)cc(OC)c1OC
inhibition at 0.15 µM [1]: 21%

COc1cccc(C(=O)Nc2cc(-c3noc(-c4sc(NC(=O)NCCC(C)=O)nc4N)n3)c(F)cc2F)c1
inhibition at 0.05 µM [6]: 6%

COc1cccc(C(=O)Nc2cccc(-c3csc(-c4sc(Nc5cc(OC)c(OC)c(OC)c5)nc4N)n3)c2)c1 [drawing 999]
inhibition at 0.15 µM [1]: 108%

CNC(=O)Nc1nc(N)c(-c2nc(-c3cccc(NC(=O)c4cc(OC)ccc4C#N)c3)cs2)s1
inhibition at 0.001 µM [9]: -18%
inhibition at 0.01 µM [10]: -1%

CNC(=O)Nc1nc(N)c(-c2nc(-c3cccc(NC(=O)C4C[C@H]5C=C[C@@H]4C5)c3)cs2)s1 (stereo partly drawn)
inhibition at 0.001 µM [9]: 4%
inhibition at 0.01 µM [10]: -18%

COc1cccc(C(=O)Nc2cc(-c3csc(-c4sc(NC(=O)NC5CCN(Cc6ccccc6)CC5)nc4N)n3)c(F)cc2F)c1
inhibition at 0.05 µM [3]: 66%

COc1cccc(C(=O)Nc2cccc(-c3csc(-c4sc(NC(=O)NCC(C)C)nc4N)n3)c2)c1
inhibition at 0.01 µM [7]: -1%
inhibition at 0.05 µM [8]: -23%

COc1cccc(C(=O)Nc2cc(-c3noc(-c4sc(NC(=O)NC5CCS(=O)(=O)C5)nc4N)n3)c(F)cc2F)c1 (stereo not drawn)
inhibition at 0.05 µM [6]: -7%

COc1cccc(C(=O)Nc2cc(-c3noc(-c4sc(NC(=O)NCC(C)N(C)C)nc4N)n3)c(F)cc2F)c1 (stereo not drawn)
inhibition at 0.05 µM [6]: -25%

COc1cc(Nc2nc(N)c(-c3nc(-c4cccc(NC(=O)c5ccc6c(c5)OC(F)(F)O6)c4)cs3)s2)cc(OC)c1OC
inhibition at 0.15 µM [1]: 72%

COc1cccc(C(=O)Nc2cccc(-c3csc(-c4sc(NC(=O)NCc5ccc(N)cc5)nc4N)n3)c2)c1
inhibition at 0.01 µM [7]: 4%
inhibition at 0.05 µM [8]: 35%

COc1cccc(C(=O)Nc2cc(-c3noc(-c4sc(NC(=O)NCCN5CCCCC5)nc4N)n3)c(F)cc2F)c1
inhibition at 0.05 µM [6]: 78%

COC(=O)c1ccc(C(=O)Nc2cccc(-c3csc(-c4sc(Nc5cc(OC)c(OC)c(OC)c5)nc4N)n3)c2)cc1
inhibition at 0.15 µM [1]: 23%

CNC(=O)Nc1nc(N)c(-c2nc(-c3cccc(NC(=O)[C@@]45C[C@@H]6C[C@@H]4CC6(C)C5)c3)cs2)s1
inhibition at 0.001 µM [9]: -20%
inhibition at 0.01 µM [10]: 2%
